# From PubChem BioAssay (NCI)
#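 Where inhibition never reached the appropriate level, the endpoint shown equals the highest concentration tested. Otherwise, values were interpolated linearly from a five-concentration, 48-hour dose response in 96-well plates. At the TGI there is no net growth.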
# Experiments:
# Assay in all cases: NCI tumour cell line growth inhibition, 48 h
# COLO 205 colon = test system: COLO 205 colon
# SW-620 colon = test system: SW-620 colon
# DLD-1 colon = test system: DLD-1 colon
# ACHN renal = test system: ACHN renal
# HCT-15 colon = test system: HCT-15 colon
# A549 NSCLC = test system: A549 NSCLC
# SN12C renal = test system: SN12C renal
# OVCAR-4 ovarian = test system: OVCAR-4 ovarian
# HOP-92 NSCLC = test system: HOP-92 NSCLC
# SK-MEL-28 melanoma = test system: SK-MEL-28 melanoma
# SF-539 CNS = test system: SF-539 CNS
# HOP-62 NSCLC = test system: HOP-62 NSCLC
# NCI/ADR-RES ovarian = test system: NCI/ADR-RES ovarian
# UACC-62 melanoma = test system: UACC-62 melanoma
# SN12K1 renal = test system: SN12K1 renal
# T-47D breast = test system: T-47D breast
# SK-MEL-2 melanoma = test system: SK-MEL-2 melanoma
# IGROV1 ovarian = test system: IGROV1 ovarian
# LOX IMVI melanoma = test system: LOX IMVI melanoma
# MDA-MB-231 breast = test system: MDA-MB-231 breast
# K-562 leukemia = test system: K-562 leukemia
# KM20L2 colon = test system: KM20L2 colon
# DMS 273 small cell lung = test system: DMS 273 small cell lung
# HS 578T breast = test system: HS 578T breast
# OVCAR-3 ovarian = test system: OVCAR-3 ovarian
# BT-549 breast = test system: BT-549 breast
# P388/ADR leukemia = test system: P388/ADR leukemia
# M14 melanoma = test system: M14 melanoma
# HL-60(TB) leukemia = test system: HL-60(TB) leukemia
# HOP-18 NSCLC = test system: HOP-18 NSCLC
# TK-10 renal = test system: TK-10 renal
# CCRF-CEM leukemia = test system: CCRF-CEM leukemia
# KM12 colon = test system: KM12 colon
# NCI-H522 lung = test system: NCI-H522 lung
# NCI-H226 lung = test system: NCI-H226 lung
# A498 renal = test system: A498 renal
# PC-3 prostate = test system: PC-3 prostate
# MDA-N = test system: MDA-N
# DMS 114 small cell lung = test system: DMS 114 small cell lung
# OVCAR-8 ovarian = test system: OVCAR-8 ovarian
# SF-268 CNS = test system: SF-268 CNS
# MALME-3M melanoma = test system: MALME-3M melanoma
# U251 CNS = test system: U251 CNS
# XF 498 CNS = test system: XF 498 CNS
# P388 leukemia = test system: P388 leukemia
# UO-31 renal = test system: UO-31 renal
# SR leukemia = test system: SR leukemia
# MCF7 breast = test system: MCF7 breast
# SF-295 CNS = test system: SF-295 CNS
# NCI-H23 lung = test system: NCI-H23 lung
# HCT-116 colon = test system: HCT-116 colon
# RXF 393 renal = test system: RXF 393 renal
# MOLT-4 leukemia = test system: MOLT-4 leukemia
# DU-145 prostate = test system: DU-145 prostate
# EKVX NSCLC = test system: EKVX NSCLC
# M19-MEL melanoma = test system: M19-MEL melanoma
# UACC-257 melanoma = test system: UACC-257 melanoma
# SNB-75 CNS = test system: SNB-75 CNS
# OVCAR-5 ovarian = test system: OVCAR-5 ovarian
# NCI-H460 lung = test system: NCI-H460 lung
# SK-OV-3 ovarian = test system: SK-OV-3 ovarian
# SNB-78 CNS = test system: SNB-78 CNS
# HT29 colon = test system: HT29 colon
# HCC-2998 colon = test system: HCC-2998 colon
# SNB-19 CNS = test system: SNB-19 CNS
# 786-0 renal = test system: 786-0 renal
# MDA-MB-435 = test system: MDA-MB-435
# SK-MEL-5 melanoma = test system: SK-MEL-5 melanoma
# RPMI-8226 leukemia = test system: RPMI-8226 leukemia
# CAKI-1 renal = test system: CAKI-1 renal
# LXFL 529 NSCLC = test system: LXFL 529 NSCLC
# RXF-631 renal = test system: RXF-631 renal
smiles,measurement,setting,value
COc1ccccc1/C=C1\CCC(CN(C)C)C1=O (centres undefined),TGI,COLO 205 colon,8.38 µM
same,TGI,SW-620 colon,6 µM
same,TGI,DLD-1 colon,4.98 µM
same,TGI,ACHN renal,15.2 µM
same,TGI,HCT-15 colon,7.85 µM
same,TGI,A549 NSCLC,40.6 µM
same,TGI,SN12C renal,13.3 µM
same,TGI,OVCAR-4 ovarian,19.6 µM
same,TGI,HOP-92 NSCLC,15.9 µM
same,TGI,SK-MEL-28 melanoma,12.2 µM
same,TGI,SF-539 CNS,27.2 µM
same,TGI,HOP-62 NSCLC,36.4 µM
same,TGI,NCI/ADR-RES ovarian,90.3 µM
same,TGI,UACC-62 melanoma,13.9 µM
same,TGI,SN12K1 renal,4.4 µM
same,TGI,T-47D breast,28.8 µM
same,TGI,SK-MEL-2 melanoma,24.4 µM
same,TGI,IGROV1 ovarian,32.7 µM
same,TGI,LOX IMVI melanoma,4.67 µM
same,TGI,MDA-MB-231 breast,5.78 µM
same,TGI,K-562 leukemia,11.3 µM
same,TGI,KM20L2 colon,16.4 µM
same,TGI,DMS 273 small cell lung,20.5 µM
same,TGI,HS 578T breast,> 45.8 µM
same,TGI,OVCAR-3 ovarian,18.6 µM
same,TGI,BT-549 breast,28.1 µM
same,TGI,P388/ADR leukemia,2.75 µM
same,TGI,M14 melanoma,11.1 µM
same,TGI,HL-60(TB) leukemia,6.68 µM
same,TGI,HOP-18 NSCLC,> 53.1 µM
same,TGI,TK-10 renal,15.7 µM
same,TGI,CCRF-CEM leukemia,8.47 µM
same,TGI,KM12 colon,12.4 µM
same,TGI,NCI-H522 lung,3.56 µM
same,TGI,NCI-H226 lung,25 µM
same,TGI,A498 renal,34.1 µM
same,TGI,PC-3 prostate,18 µM
same,TGI,MDA-N,26 µM
same,TGI,DMS 114 small cell lung,7.58 µM
same,TGI,OVCAR-8 ovarian,26.3 µM
same,TGI,SF-268 CNS,29.7 µM
same,TGI,MALME-3M melanoma,16.2 µM
same,TGI,U251 CNS,26.9 µM
same,TGI,XF 498 CNS,32.6 µM
same,TGI,P388 leukemia,2.83 µM
same,TGI,UO-31 renal,18 µM
same,TGI,SR leukemia,13 µM
same,TGI,MCF7 breast,5.87 µM
same,TGI,SF-295 CNS,29.7 µM
same,TGI,NCI-H23 lung,25.1 µM
same,TGI,HCT-116 colon,18.1 µM
same,TGI,RXF 393 renal,9.13 µM
same,TGI,MOLT-4 leukemia,17.5 µM
same,TGI,DU-145 prostate,47.1 µM
same,TGI,EKVX NSCLC,38.9 µM
same,TGI,M19-MEL melanoma,7.46 µM
same,TGI,UACC-257 melanoma,25 µM
same,TGI,SNB-75 CNS,17.8 µM
same,TGI,OVCAR-5 ovarian,24.2 µM
same,TGI,NCI-H460 lung,44.5 µM
same,TGI,SK-OV-3 ovarian,33.7 µM
same,TGI,SNB-78 CNS,29.2 µM
same,TGI,HT29 colon,16.1 µM
same,TGI,HCC-2998 colon,14.2 µM
same,TGI,SNB-19 CNS,26.7 µM
same,TGI,786-0 renal,5.08 µM
same,TGI,MDA-MB-435,25.2 µM
same,TGI,SK-MEL-5 melanoma,30.4 µM
same,TGI,RPMI-8226 leukemia,21.1 µM
same,TGI,CAKI-1 renal,12 µM
O=CC(O)C(O)C(O)COc1cc(CO)cc2c1C(=O)c1ccccc1C2=O (centres undefined),TGI,COLO 205 colon,> 100 µM
same,TGI,SW-620 colon,> 100 µM
same,TGI,DLD-1 colon,> 100 µM
same,TGI,ACHN renal,> 31.6 µM
same,TGI,HCT-15 colon,> 100 µM
same,TGI,A549 NSCLC,> 100 µM
same,TGI,SN12C renal,> 100 µM
same,TGI,OVCAR-4 ovarian,> 100 µM
same,TGI,HOP-92 NSCLC,> 100 µM
same,TGI,SK-MEL-28 melanoma,> 100 µM
same,TGI,SF-539 CNS,> 100 µM
same,TGI,HOP-62 NSCLC,> 100 µM
same,TGI,UACC-62 melanoma,> 100 µM
same,TGI,SK-MEL-2 melanoma,> 100 µM
same,TGI,IGROV1 ovarian,> 100 µM
same,TGI,LOX IMVI melanoma,> 100 µM
same,TGI,K-562 leukemia,> 100 µM
same,TGI,KM20L2 colon,> 100 µM
same,TGI,DMS 273 small cell lung,> 100 µM
same,TGI,OVCAR-3 ovarian,> 100 µM
same,TGI,M14 melanoma,> 100 µM
same,TGI,HL-60(TB) leukemia,> 100 µM
same,TGI,HOP-18 NSCLC,> 100 µM
same,TGI,TK-10 renal,> 100 µM
same,TGI,CCRF-CEM leukemia,> 100 µM
same,TGI,KM12 colon,> 100 µM
same,TGI,NCI-H522 lung,> 100 µM
same,TGI,NCI-H226 lung,> 100 µM
same,TGI,LXFL 529 NSCLC,> 100 µM
same,TGI,A498 renal,> 100 µM
same,TGI,DMS 114 small cell lung,> 100 µM
same,TGI,OVCAR-8 ovarian,> 100 µM
same,TGI,SF-268 CNS,> 100 µM
same,TGI,MALME-3M melanoma,> 100 µM
same,TGI,U251 CNS,> 100 µM
same,TGI,XF 498 CNS,> 100 µM
same,TGI,RXF-631 renal,> 100 µM
same,TGI,UO-31 renal,> 100 µM
same,TGI,SR leukemia,> 100 µM
same,TGI,SF-295 CNS,> 100 µM
same,TGI,NCI-H23 lung,> 100 µM
same,TGI,HCT-116 colon,> 100 µM
same,TGI,RXF 393 renal,> 100 µM
same,TGI,MOLT-4 leukemia,> 100 µM
same,TGI,EKVX NSCLC,> 100 µM
same,TGI,M19-MEL melanoma,> 100 µM
same,TGI,UACC-257 melanoma,> 100 µM
same,TGI,SNB-75 CNS,> 100 µM
same,TGI,OVCAR-5 ovarian,> 100 µM
same,TGI,NCI-H460 lung,> 100 µM
same,TGI,SK-OV-3 ovarian,> 100 µM
same,TGI,SNB-78 CNS,> 100 µM
same,TGI,HT29 colon,> 100 µM
same,TGI,HCC-2998 colon,> 100 µM
same,TGI,SNB-19 CNS,> 100 µM
same,TGI,786-0 renal,> 100 µM
same,TGI,SK-MEL-5 melanoma,> 100 µM
same,TGI,RPMI-8226 leukemia,> 100 µM
same,TGI,CAKI-1 renal,> 100 µM
